In ChEMBL document CHEMBL1139149, “Discovery of tertiary aminoacids as dual PPARalpha/gamma agonists-I” (Bioorg Med Chem Lett, 2007):
The source made the active and inactive calls. The rule behind the calls is not given here.

Tests used:
[1] = target: T1, Peroxisome proliferator-activated receptor alpha (Homo sapiens, UniProt Q07869); test: Agonist activity at PPARalpha receptor expressed in HEK293 cells by GAL4 transactivation assay; assay type: functional, cell-based
T1 sequence (Q07869 whole entry): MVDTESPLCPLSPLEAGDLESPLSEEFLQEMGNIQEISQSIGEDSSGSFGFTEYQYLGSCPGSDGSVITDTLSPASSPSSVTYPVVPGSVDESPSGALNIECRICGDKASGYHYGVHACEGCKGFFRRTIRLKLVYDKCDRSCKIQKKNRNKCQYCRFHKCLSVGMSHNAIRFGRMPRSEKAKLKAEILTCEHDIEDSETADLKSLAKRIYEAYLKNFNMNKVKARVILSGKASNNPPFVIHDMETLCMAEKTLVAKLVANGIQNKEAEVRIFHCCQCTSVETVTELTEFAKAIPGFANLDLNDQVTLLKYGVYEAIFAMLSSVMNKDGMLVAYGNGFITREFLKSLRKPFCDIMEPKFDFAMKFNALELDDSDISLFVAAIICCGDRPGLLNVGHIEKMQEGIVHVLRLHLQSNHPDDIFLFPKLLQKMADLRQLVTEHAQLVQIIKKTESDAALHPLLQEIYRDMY

[2] = target: T2, Peroxisome proliferator-activated receptor gamma (Homo sapiens, UniProt P37231); test: (§1) Displacement of fluorescein labeled ligand from PPARgamma receptor by fluorescence polarization assay
T2 sequence (P37231 whole entry): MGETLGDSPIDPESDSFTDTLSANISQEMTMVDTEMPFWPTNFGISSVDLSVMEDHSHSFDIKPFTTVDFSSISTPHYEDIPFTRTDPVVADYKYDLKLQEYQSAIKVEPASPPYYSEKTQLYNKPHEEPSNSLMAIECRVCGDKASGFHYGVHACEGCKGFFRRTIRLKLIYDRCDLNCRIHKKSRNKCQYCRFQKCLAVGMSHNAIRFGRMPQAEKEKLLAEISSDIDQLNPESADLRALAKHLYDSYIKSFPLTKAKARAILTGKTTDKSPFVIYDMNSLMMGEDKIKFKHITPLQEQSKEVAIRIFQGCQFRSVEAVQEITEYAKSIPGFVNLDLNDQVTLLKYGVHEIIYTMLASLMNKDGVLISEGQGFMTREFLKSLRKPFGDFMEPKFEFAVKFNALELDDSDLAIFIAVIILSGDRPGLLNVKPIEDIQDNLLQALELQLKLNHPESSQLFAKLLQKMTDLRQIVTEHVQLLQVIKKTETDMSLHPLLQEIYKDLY

[3] = target: T1, Peroxisome proliferator-activated receptor alpha; test: Displacement of fluorescein labeled ligand from PPARalpha receptor by fluorescence polarization assay
[4] = target: T2, Peroxisome proliferator-activated receptor gamma
Description: Agonist activity at PPARgamma receptor expressed in HEK293 cells by GAL4 transactivation assay

[5] = target: T3, Peroxisome proliferator-activated receptor alpha (Homo sapiens) (UniProt Q07869); test: Intrinsic activity at PPARalpha receptor expressed in HEK293 cells at 1 uM by GAL4 transactivation assay relative to GW-2331; assay type: cell-based
T3 sequence (whole entry): T1 sequence (Q07869 whole entry)

[6] = target: T4, Peroxisome proliferator-activated receptor gamma (Homo sapiens) (UniProt P37231); test: as §1
T4 sequence (whole entry): T2 sequence (P37231 whole entry)

[7] = Metabolic stability in mouse liver microsomes after 10 mins; assay type: ADME, Microsome; details: read-out: Stability
[8] = tested on: Mus musculus; test: Antidiabetic activity in db/db mouse assessed as changes in insulin level at 10 mg/kg, po qd for 14 days; assay type: functional
[9] = Permeability from apical to basolateral side of Caco-2 cell membrane at pH 5.5; assay type: ADME, cell-based; details: human, Caco-2, pH 5.5; read-out: permeability
[10] = tested on: Mus musculus; test: Antidiabetic activity in db/db mouse assessed as changes in free fatty acid level at 10 mg/kg, po qd for 14 days; assay type: functional
[11] = Permeability from apical to basolateral side of Caco-2 cell membrane at pH 7.4; assay type: ADME, cell-based; details: human, Caco-2, pH 7.4; read-out: permeability
[12] = tested on: Mus musculus; test: Antidiabetic activity in db/db mouse assessed as changes in glucose level at 10 mg/kg, po qd for 14 days; assay type: functional
[13] = tested on: Mus musculus; test: Antidiabetic activity in db/db mouse assessed as changes in triglyceride level at 10 mg/kg, po qd for 14 days; assay type: functional
[14] = Permeability from apical to basolateral side of Caco-2 cell membrane at pH 6.5; assay type: ADME, cell-based; details: human, Caco-2, pH 6.5; read-out: permeability

Activity [6]	Papp A→B [14] [×10⁻⁶ cm/s]	Compound	EC50 [1] [nM]	IC50 [2] [nM]	IC50 [3] [nM]	EC50 [4] [nM]	Intrinsic activity [5] [%]	remaining at 10 min [7] [%]	Activity [8] [%]	Papp A→B [9] [×10⁻⁶ cm/s]	Activity [10] [%]	Papp A→B [11] [×10⁻⁶ cm/s]	Activity [12] [%]	Activity [13] [%]
–	–	Cc1oc(-c2ccccc2)nc1CCOc1ccc(CN(CC(=O)O)Cc2cccc3ccccc23)cc1	21	767	140	840	90	–	–	–	–	–	–	–
–	–	Cc1oc(-c2ccccc2)nc1CCOc1cccc(CN(CCc2ccccc2)CC(=O)O)c1	44	134	75	108	82	–	–	–	–	–	–	–
–	–	Cc1oc(-c2ccccc2)nc1CCOc1cccc(CN(CC(=O)O)Cc2cccc(Oc3ccccc3)c2)c1	62	110	83	359	95	–	–	–	–	–	–	–
inactive	–	CCC(CC)CN(CC(=O)O)Cc1ccc(OCCc2nc(-c3ccccc3)oc2C)cc1	–	–	–	1800	8	–	–	–	–	–	–	–
–	–	Cc1oc(-c2ccccc2)nc1CCOc1cccc(CN(CC(=O)O)Cc2ccccc2)c1	22	240	90	295	72	84	-40	25.1	-22	22.5	-31	-29
–	–	Cc1oc(-c2ccccc2)nc1CCOc1ccc(CN(CC(=O)O)Cc2ccc(OCc3ccccc3)cc2)cc1	189	284	1050	221	106	–	–	–	–	–	–	–
–	–	Cc1oc(-c2ccccc2)nc1CCOc1ccc(CN(CCOCc2ccccc2)CC(=O)O)cc1	726	4560	1800	1180	56	–	–	–	–	–	–	–
–	–	Cc1oc(-c2ccccc2)nc1CCOc1ccc(CN(CC(=O)O)Cc2ccc(-c3ccccc3Cl)o2)cc1	871	280	1800	267	55	–	–	–	–	–	–	–
–	–	CCCCCCCN(CC(=O)O)Cc1ccc(OCCc2nc(-c3ccccc3)oc2C)cc1	180	2300	1050	136	63	–	–	–	–	–	–	–
–	–	COc1ccc(OC(=O)N(CC(=O)O)Cc2ccc(OCCc3nc(-c4ccccc4)oc3C)cc2)cc1 [MURAGLITAZAR]	–	–	–	–	–	–	-67	–	-69	–	-50	-50
–	–	Cc1oc(-c2ccccc2)nc1CCOc1ccc(C[C@H](Nc2ccccc2C(=O)c2ccccc2)C(=O)O)cc1	–	–	–	–	59	–	–	–	–	–	–	–
–	–	Cc1oc(-c2ccccc2)nc1CCOc1ccc(CN(CC(=O)O)Cc2cccc(Oc3ccccc3)c2)cc1	4	480	88	391	107	–	–	–	–	–	–	–
–	–	Cc1oc(-c2ccccc2)nc1CCOc1cccc(CN(CC(=O)O)Cc2ccc(Oc3ccccc3)cc2)c1	30	230	110	67	67	–	–	–	–	–	–	–
–	–	Cc1oc(-c2ccccc2)nc1CCOc1ccc(CN(CC(=O)O)Cc2ccccn2)cc1	692	2900	–	230	12	–	–	–	–	–	–	–
–	–	Cc1oc(-c2ccccc2)nc1CCOc1cccc(CN(CC(=O)O)Cc2ccc3ccccc3c2)c1	313	145	149	1390	65	–	–	–	–	–	–	–
–	–	Cc1oc(-c2ccccc2)nc1CCOc1cccc(CN(CCCc2ccccc2)CC(=O)O)c1	47	773	51	901	62	–	–	–	–	–	–	–
–	–	Cc1oc(-c2ccccc2)nc1CCOc1cccc(CN(CC(=O)O)Cc2cc3ccccc3[nH]2)c1	197	540	246	759	62	–	–	–	–	–	–	–
–	–	Cc1oc(-c2ccccc2)nc1CCOc1ccc(CN(CC(=O)O)Cc2ccc3ccccc3c2)cc1	618	1210	680	1210	39	–	–	–	–	–	–	–
–	–	Cc1oc(-c2ccccc2)nc1CCOc1cccc(CN(CC(=O)O)Cc2ccc(OCc3ccccc3)cc2)c1	324	183	387	412	56	–	–	–	–	–	–	–
–	< 1.5	Cc1oc(-c2ccccc2)nc1CCOc1ccc(CN(CC(=O)O)Cc2ccc(Oc3ccccc3)cc2)cc1	35	227	970	52	59	46	–	–	–	–	–	–
–	–	Cc1oc(-c2ccccc2)nc1CCOc1ccc(CN(CC(=O)O)Cc2ccccc2)cc1	4020	1770	–	3600	24	–	–	–	–	–	–	–
–	–	CCCCCCCN(CCc1ccc(O[C@@](C)(CC)C(=O)O)cc1)C(=O)Nc1ccc(F)cc1F	71	670	348	249	79	–	–	–	–	–	–	–
–	–	Cc1oc(-c2ccccc2)nc1CCOc1cccc(CN(CC(=O)O)Cc2cccc3ccccc23)c1	5	67	34	36	85	–	–	–	–	–	–	–
–	–	Cc1oc(-c2ccccc2)nc1CCOc1ccc(CN(CC(=O)O)Cc2ccc3c(c2)OCO3)cc1	128	3290	1800	307	77	–	–	–	–	–	–	–
